≈ marks a conversion by molar mass, not a printed value.
tested on: various strains of bacteria; experiment: Antimicrobial potency: bacterial growth inhibition by OD600 (Antibacterial assay 1, MITC95); format: cell-based, A. baumannii; conditions: Acinetobacter baumannii, 20 h, lowest concentration giving >95% growth inhibition, CAMHB, 18-22 h
Method: The concentrations of compounds required to inhibit the growth of various strains of bacteria were determined in an assay that assessed bacterial growth by measuring optical density at 600 nm (OD600). Test articles were dissolved in 100% DMSO and serially diluted two-fold from their maximal concentration in 100% DMSO. Forty-nine μl of bacterial inoculum (at approx. 2×10^5 cfu/mL in CAMHB) were put into wells of an assay plate. One μl of compound or DMSO was transferred from the source plate to the assay plate. The completed assay plates were then incubated at 35+2degC for 18-22 h. Bacterial growth was measured by reading OD600 on a spectrophotometer. Data analysis calculates the lowest concentration of compound which results in >95% growth inhibition (minimum inhibitory threshold concentration 95%, MITC95).

Compound	MIC
O=C(O)c1cc(OC2CN(Cc3ccc(NS(=O)(=O)c4cnn(-c5ccc(F)cc5)c4)c(S(=O)(=O)O)c3)C2)ccc1NS(=O)(=O)c1cnn(-c2ccc(F)cc2)c1 [Compound 3, 2-((1-(4-fluorophenyl)-1H-pyrazole)-4-sulfonamido)-5-((1-(4-((1-(4-fluorophenyl)-1H-pyrazole)-4-sulfonamido)-3-sulfobenzyl)azetidin-3-yl)oxy)benzoic acid]	0.277 µM (≈ 0.233 µg/mL)
O=C(O)c1cc(COC2CC(OCc3ccc(NS(=O)(=O)c4cnn(-c5ccc(F)cc5)c4)c(C(=O)O)c3)C2)ccc1NS(=O)(=O)c1cnn(-c2ccc(F)cc2)c1 (stereo not drawn) [Compound 12, trans-5-((3-((3-carboxy-4-((1-(4-fluorophenyl)-1H-pyrazole)-4-sulfonamido)benzyl)oxy)-cyclobutoxy)methyl)-2-((1-(4-fluorophenyl)-1H-pyrazole)-4-sulfonamido)benzoic acid]	0.138 µM (≈ 0.115 µg/mL)
O=C(O)c1cc(COC2CC(OCc3ccc(NS(=O)(=O)c4ccc(-c5ccc(F)cc5)cc4)c(C(=O)O)c3)C2)ccc1NS(=O)(=O)CCc1ccc(Cl)cc1 (centres unmarked) [Compound 16]	< 0.0488 µM
O=C(O)c1cc(COC2CC(OCc3ccc(NS(=O)(=O)c4ccc(-c5ccc(Cl)cc5)cc4)c(C(=O)O)c3)C2)ccc1NS(=O)(=O)CCc1ccc(Cl)cc1 (centres unmarked) [Compound 17]	< 0.0488 µM
O=C(O)c1cc(OCC2CCC(COc3ccc(NS(=O)(=O)c4cnn(-c5ccc(Cl)cc5)c4)c(C(=O)O)c3)O2)ccc1NS(=O)(=O)c1cnn(-c2ccc(Cl)cc2)c1 (centres unmarked) [Compound 19, 5-((5-((3-Carboxy-4-((1-(4-chlorophenyl)-1H-pyrazole)-4-sulfonamido)-phenoxy)methyl)tetrahydrofuran-2-yl)methoxy)-2-((1-(4-chlorophenyl)-1H-pyrazole)-4-sulfonamido)benzoic acid]	0.0245 µM (≈ 0.0217 µg/mL)
O=C(O)c1cc(OC[C@H]2CC[C@@H](COc3ccc(NS(=O)(=O)c4cnn(-c5ccc(F)cc5)n4)c(C(=O)O)c3)O2)ccc1NS(=O)(=O)c1cnn(-c2ccc(F)cc2)n1 [Compound 20]	0.0245 µM (≈ 0.0209 µg/mL)
O=C(O)c1cc(OC[C@H]2CC[C@@H](COc3ccc(NS(=O)(=O)c4ccc(-c5ccc(F)cc5)cc4)c(C(=O)O)c3)O2)ccc1NS(=O)(=O)c1ccc(-c2ccc(F)cc2)cc1 [Compound 22]	0.0489 µM (≈ 0.0426 µg/mL)
O=C(O)c1cc(OC[C@H]2CC[C@@H](COc3ccc(NS(=O)(=O)c4ccc(-c5ccc(Cl)cc5)s4)c(C(=O)O)c3)O2)ccc1NS(=O)(=O)c1ccc(-c2ccc(Cl)cc2)s1 [Compound 23]	0.0346 µM (≈ 0.0317 µg/mL)
O=C(O)c1cc(CNC2CC(CNc3ccc(NS(=O)(=O)c4cnn(-c5ccc(F)cc5)c4)c(C(=O)O)c3)C2)ccc1NS(=O)(=O)c1cnn(-c2ccc(F)cc2)c1 (stereo not drawn) [Compound 25, cis-5-(((3-((3-carboxy-4-((1-(4-fluorophenyl)-1H-pyrazole)-4-sulfonamido)benzyl)amino)cyclobutyl)methyl)amino)-2-((1-(4-fluorophenyl)-1H-pyrazole)-4-sulfonamido)benzoic acid]	0.155 µM (≈ 0.129 µg/mL)
O=C(O)c1cc(CNC2CC(CNc3ccc(NS(=O)(=O)c4cnn(-c5ccc(F)cc5)c4)c(C(=O)O)c3)C2)ccc1NS(=O)(=O)c1cnn(-c2ccc(Cl)cc2)c1 (centres unmarked) [Compound 29]	0.0489 µM (≈ 0.0415 µg/mL)
Cn1nc(-c2ccc(F)cc2)cc1S(=O)(=O)Nc1ccc(CNC2CC(CNc3ccc(NS(=O)(=O)c4cnn(-c5ccc(F)cc5)c4)c(C(=O)O)c3)C2)cc1C(=O)O (centres unmarked) [Compound 33]	0.0489 µM (≈ 0.0414 µg/mL)
O=C(O)c1cc(COC2CN(Cc3ccc(NS(=O)(=O)c4cnn(-c5ccc(Cl)cc5)c4)c(C(=O)O)c3)C2)ccc1NS(=O)(=O)c1cnn(-c2ccc(Cl)cc2)c1 [Compound 37, 5-(((1-(3-carboxy-4-(1-(4-chlorophenyl)-1H-pyrazole-4-sulfonamido)benzyl)azetidin-3-yl)oxy)methyl)-2-(1-(4-chlorophenyl)-1H-pyrazole-4-sulfonamido)benzoic acid]	0.0692 µM (≈ 0.059 µg/mL)
O=C(O)c1cc(COC2CN(Cc3ccc(NS(=O)(=O)c4cnn(-c5ccc(F)cc5)c4)c(C(=O)O)c3)C2)ccc1NS(=O)(=O)c1cnn(-c2ccc(F)cc2)c1 [Compound 38]	0.391 µM (≈ 0.321 µg/mL)
O=C(O)c1cc(CN2CC(Oc3ccc(NS(=O)(=O)c4cnn(-c5ccc(Cl)cc5)c4)c(C(=O)O)c3)C2)ccc1NS(=O)(=O)CCCCc1ccc(Cl)cc1 [Compound 41]	0.0122 µM (≈ 0.0101 µg/mL)
O=C(O)c1cc(CN2CC(Oc3ccc(NS(=O)(=O)c4cnn(-c5ccc(F)cc5)c4)c(C(=O)O)c3)C2)ccc1NS(=O)(=O)CCCc1ccc(Cl)cc1 [Compound 43]	0.0489 µM (≈ 0.039 µg/mL)

Continued, values first:

MIC	Compound
0.391 µM (≈ 0.317 µg/mL)	O=C(O)c1cc(CNC2CC(CNc3ccc(NS(=O)(=O)c4cnn(-c5ccc(F)cc5)c4)c(C(=O)O)c3)C2)ccc1NS(=O)(=O)CCc1ccc(Cl)cc1 (centres unmarked) [Compound 27]
0.391 µM (≈ 0.33 µg/mL)	O=C(O)c1cc(CN2CC(Oc3ccc(NS(=O)(=O)N4CCOC(c5ccc(F)cc5)C4)c(C(=O)O)c3)C2)ccc1NS(=O)(=O)N1CCOC(c2ccc(F)cc2)C1 (centres unmarked) [Compound 44, 5-((1-(3-carboxy-4-((2-(4-fluorophenyl)morpholine)-4-sulfonamido)benzyl)azetidin-3-yl)oxy)-2-((2-(4-fluorophenyl)morpholine)-4-sulfonamido)benzoic acid]
0.277 µM (≈ 0.24 µg/mL)	O=C(O)Cc1cc(CN2CC(Oc3ccc(NS(=O)(=O)c4cnn(-c5ccc(Cl)cc5)c4)c(CC(=O)O)c3)C2)ccc1NS(=O)(=O)c1cnn(-c2ccc(Cl)cc2)c1 [Compound 1, 2-(5-((1-(3-(carboxymethyl)-4-(1-(4-chlorophenyl)-1H-pyrazole-4-sulfonamido)benzyl)azetidin-3-yl)oxy)-2-(1-(4-chlorophenyl)-1H-pyrazole-4-sulfonamido)phenyl) acetic acid]
0.277 µM (≈ 0.241 µg/mL)	O=C(O)c1cc(OC[C@H]2C[C@H](Oc3ccc(NS(=O)(=O)c4cnn(-c5ccc(Cl)cc5)c4)c(C(=O)O)c3)CN2)ccc1NS(=O)(=O)c1cnn(-c2ccc(Cl)cc2)c1 [Compound 24, trans-5-((5-((3-carboxy-4-((1-(4-chlorophenyl)-1H-pyrazole)-4-sulfonamido)-phenoxy)methyl)pyrrolidin-3-yl)oxy)-2-((1-(4-chlorophenyl)-1H-pyrazole)-4-sulfonamido)benzoic acid]
0.277 µM (≈ 0.238 µg/mL)	O=C(O)c1cc(CNC2CC(CNc3ccc(NS(=O)(=O)c4cnn(-c5ccc(F)cc5)c4)c(C(=O)O)c3)C2)ccc1NS(=O)(=O)c1ccc(-c2ccc(Cl)cc2)cc1 (centres unmarked) [Compound 30]
0.196 µM (≈ 0.164 µg/mL)	O=C(O)c1cc(NCC2CC(NCc3ccc(NS(=O)(=O)N4CC(Oc5ccc(F)cc5)C4)c(C(=O)O)c3)C2)ccc1NS(=O)(=O)c1cnn(-c2ccc(F)cc2)c1 (centres unmarked) [Compound 28]
0.196 µM (≈ 0.163 µg/mL)	O=C(O)c1cc(NCC2CC(NCc3ccc(NS(=O)(=O)c4cnn(-c5ccc(F)cc5)n4)c(C(=O)O)c3)C2)ccc1NS(=O)(=O)c1cnn(-c2ccc(F)cc2)c1 (centres unmarked) [Compound 31]
0.0978 µM (≈ 0.0839 µg/mL)	CC1(Oc2ccc(NS(=O)(=O)N3CCOC(c4ccc(F)cc4)C3)c(C(=O)O)c2)CN(Cc2ccc(NS(=O)(=O)N3CCOC(c4ccc(F)cc4)C3)c(C(=O)O)c2)C1 (centres unmarked) [Compound 45]
0.0692 µM (≈ 0.059 µg/mL)	O=C(O)Cc1cc(CN2CC(Oc3ccc(NS(=O)(=O)c4cnn(-c5ccc(Cl)cc5)c4)c(C(=O)O)c3)C2)ccc1NS(=O)(=O)c1cnn(-c2ccc(Cl)cc2)c1 [Compound 2, 5-((1-(3-(carboxymethyl)-4-((1-(4-chlorophenyl)-1H-pyrazole)-4-sulfonamido)-benzyl)azetidin-3-yl)oxy)-2-((1-(4-chlorophenyl)-1H-pyrazole)-4-sulfonamido)benzoic acid]
0.0489 µM (≈ 0.0395 µg/mL)	O=C(O)c1cc(OC[C@H]2CC[C@@H](COc3ccc(NS(=O)(=O)CCc4ccc(Cl)cc4)c(C(=O)O)c3)O2)ccc1NS(=O)(=O)CCc1ccc(Cl)cc1 [Compound 21]
0.0489 µM (≈ 0.0424 µg/mL)	O=C(O)c1cc(NCC2CC(NCc3ccc(NS(=O)(=O)c4cnc(-c5ccc(Cl)cc5)s4)c(C(=O)O)c3)C2)ccc1NS(=O)(=O)c1cnn(-c2ccc(F)cc2)c1 (centres unmarked) [Compound 26]
0.0489 µM (≈ 0.0422 µg/mL)	Cn1nc(-c2ccc(F)cc2)cc1S(=O)(=O)Nc1ccc(CNC2CC(CNc3ccc(NS(=O)(=O)c4cnn(-c5ccc(Cl)cc5)c4)c(C(=O)O)c3)C2)cc1C(=O)O (centres unmarked) [Compound 34]
0.0489 µM (≈ 0.0415 µg/mL)	O=C(O)c1cc(CNC2CC(CNc3ccc(NS(=O)(=O)c4cnn(-c5ccc(Cl)cc5)c4)c(C(=O)O)c3)C2)ccc1NS(=O)(=O)c1cnn(-c2ccc(F)cc2)c1 (centres unmarked) [Compound 35]
0.0489 µM (≈ 0.0417 µg/mL)	O=C(O)c1cc(NCC2CC(NCc3ccc(NS(=O)(=O)N4CCOC(c5ccc(F)cc5)C4)c(C(=O)O)c3)C2)ccc1NS(=O)(=O)c1cnn(-c2ccc(F)cc2)c1 (centres unmarked) [Compound 36]
0.0489 µM (≈ 0.0411 µg/mL)	O=C(O)c1cc(CN2CC(Oc3ccc(NS(=O)(=O)c4cnn(-c5ccc(F)cc5)c4)c(C(=O)O)c3)C2)ccc1NS(=O)(=O)CCCCCCc1ccc(Cl)cc1 [Compound 40]
0.0489 µM (≈ 0.039 µg/mL)	O=C(O)c1cc(CN2CC(Oc3ccc(NS(=O)(=O)c4cnn(-c5ccc(Cl)cc5)c4)c(C(=O)O)c3)C2)ccc1NS(=O)(=O)CCCc1ccc(F)cc1 [Compound 42]
0.0245 µM (≈ 0.0209 µg/mL)	O=C(O)c1cc(COC2CC(OCc3ccc(NS(=O)(=O)c4ccc(-c5ccc(F)cc5)cc4)c(C(=O)O)c3)C2)ccc1NS(=O)(=O)c1ccc(-c2ccc(F)cc2)cc1 (centres unmarked) [Compound 14]
0.0245 µM (≈ 0.0212 µg/mL)	O=C(O)c1cc(CNC2CC(CNc3ccc(NS(=O)(=O)c4cnn(-c5ccc(Cl)cc5)c4)c(C(=O)O)c3)C2)ccc1NS(=O)(=O)c1cnn(-c2ccc(Cl)cc2)c1 (centres unmarked) [Compound 32]
0.0122 µM (≈ 0.01 µg/mL)	O=C(O)c1cc(COC2CC(OCc3ccc(NS(=O)(=O)c4ccc(-c5ccc(Cl)cc5)cc4)c(C(=O)O)c3)C2)ccc1NS(=O)(=O)CCc1ccc(F)cc1 (centres unmarked) [Compound 18]

same assay, conditions: lowest concentration giving >95% growth inhibition, CAMHB, 18-22 h

MIC	Compound
0.196 µM (≈ 0.164 µg/mL)	O=C(O)c1cc(COC2CC(OCc3ccc(NS(=O)(=O)c4cnn(-c5ccc(F)cc5)c4)c(C(=O)O)c3)C2)ccc1NS(=O)(=O)c1cnn(-c2ccc(F)cc2)c1 (centres unmarked) [Compound 13]

From patent publication US20250326713A1, “INHIBITORS OF MsbA AS ANTIBIOTICS, PHARMACEUTICAL COMPOSITIONS, AND USES THEREOF” (priority 2022, published 2025)
